Laboratory results from patent US9096605B2, “Pyrazolopyrimidine derivatives as PI3 kinase inhibitors” (GlaxoSmithKline LLC, priority 2011, dated 2015).

How the values were obtained:
[1] = system: pAKT(Ser473) in MDA-MB-468 cells; test: pAKT(Ser473) assay in MDA-MB-468 cells; format: cell-based; conditions: Homo sapiens, 0.5 h, compound treatment 30 minutes, MSD ELISA phospho AKT(Ser473), given as ranges, read-out: Cell Activity—pAKT IC50 in MDA-MB-468
Method: pAKT(Ser473) Assay in MDA-MB-468 Cells
MDA-MB-468 cells were plated in 384-well flat clear bottom tissue culture plates (Corning #3701) at a density of 5000 cells per 0.057 cm2 in 48 ul of RPMI 1640 media supplemented with 10% fetal bovine serum (FBS). Cells were seeded with a Wellmate liquid handler (Matrix). Columns 1 through 23 were plated with cells and column 24 contained media alone. Cells were incubated at 37° C. with 5% CO2 for approximately 16-20 hours. Duplicate compound plates were prepared in 384-well polypropylene V-Bottom plates (Greiner #781280).
Compound titrations were made across the columns (A1-A20). 20 ul of compound was added to the first column and diluted into a 20 point curve with dimethylsulfoxide (DMSO, Thermo #TS2064) using a 2-fold dilution factor with a liquid handling robot (Hamilton). Columns 22 through 24 contained DMSO alone. Titrations were diluted 682-fold for compound treatment with 4 ul of compound added to 105 ul of RPMI media. Two ul of the diluted compound was added to the cell plates containing 48 ul of media using a multimek robot (Beckman Coulter). Final DMSO concentrations were 0.15%. Cells were treated with compound for 30 minutes at 37° C. with 5% CO2.
Following incubation, media was aspirated from dosed cell plates using an ELx405 plate washer (Bio-Tek) and 25 ul of 4° C. Meso Scale Discovery (MSD) lysis buffer with the addition of protease and phosphatase inhibitors (supplied in MSD kit #N31CB-1) was added to each well using a multidrop combi (Thermo). Precoated 4-spot per well MSD ELISA plates coated with total and phospho AKT(Ser473) antibody and BSA (supplied in kit) were blocked for 1 hour at room temperature with 35 ul per well of 1× MSD wash buffer+3% BSA (supplied in kit).
Blocked plates were washed 4 times with 100 ul per well of 1× Tris wash buffer (supplied in MSD kit) using an Elx405 plate washer (Bio-Tek). To each well, 20 ul of cell lysate was added using a multimek robot (Beckman Coulter) and the plate incubated at 4° C. overnight (˜12-24 hours). Following incubation, the ELISA plates were washed 4 times (100 ul/well) with 1× Tris wash buffer. Twenty microliters per well of 1× detection antibody (supplied in MSD kit) was added using a multidrop combi (Thermo), followed by a 2 hour incubation at room temperature. Detection antibody was aspirated and the plates washed 4 times (100 ul/well) with 1× Tris wash buffer. Read Buffer (supplied in MSD kit) was added at 1× (35 ul/well) at room temperature using a multidrop (Thermo). Relative luminescence units (RLU) were determined using a SECTOR™ Imager 6000 with MSD Workbench Software.
Concentration Response Curves for pAKT(Ser473):
For analysis of the pAKT(Ser473) concentration response curves, the data was normalized using Phospho AKT values divided by the sum of corresponding Total AKT and Phospho AKT values. The normalized values are plotted as the percent of the DMSO-treated control values on the corresponding plate. To determine IC50 values, the data is fit to a 4 parameter nonlinear sigmoidal dose response (variable slope) using GraphPad Prism version 4 for Windows, (GraphPad Software, San Diego Calif. USA). Criteria for curve fitting and IC50 determination include that the IC50 values from duplicate runs must be within 2 to 3-fold of each other, the Y min must be less than or equal to 30% of the DMSO-treated control and the Y max must range between 80-120%. Any data point equal to or greater than 40% of the curve was not utilized.

[2] = target: T1, PI3K-beta (Homo sapiens, UniProt P42338); test: HTRF in vitro profiling assay for PI3K inhibition (beta isoform); format: biochemical; conditions: PI3K-beta enzyme pIC50 range, 200 pM enzyme, 100 uM ATP, 10 uM PIP2, 150 mM NaCl, corrected pIC50, read-out: PI3K-b Enz Activity
T1 construct: made in house
T1 sequence (P42338 whole entry, canonical isoform): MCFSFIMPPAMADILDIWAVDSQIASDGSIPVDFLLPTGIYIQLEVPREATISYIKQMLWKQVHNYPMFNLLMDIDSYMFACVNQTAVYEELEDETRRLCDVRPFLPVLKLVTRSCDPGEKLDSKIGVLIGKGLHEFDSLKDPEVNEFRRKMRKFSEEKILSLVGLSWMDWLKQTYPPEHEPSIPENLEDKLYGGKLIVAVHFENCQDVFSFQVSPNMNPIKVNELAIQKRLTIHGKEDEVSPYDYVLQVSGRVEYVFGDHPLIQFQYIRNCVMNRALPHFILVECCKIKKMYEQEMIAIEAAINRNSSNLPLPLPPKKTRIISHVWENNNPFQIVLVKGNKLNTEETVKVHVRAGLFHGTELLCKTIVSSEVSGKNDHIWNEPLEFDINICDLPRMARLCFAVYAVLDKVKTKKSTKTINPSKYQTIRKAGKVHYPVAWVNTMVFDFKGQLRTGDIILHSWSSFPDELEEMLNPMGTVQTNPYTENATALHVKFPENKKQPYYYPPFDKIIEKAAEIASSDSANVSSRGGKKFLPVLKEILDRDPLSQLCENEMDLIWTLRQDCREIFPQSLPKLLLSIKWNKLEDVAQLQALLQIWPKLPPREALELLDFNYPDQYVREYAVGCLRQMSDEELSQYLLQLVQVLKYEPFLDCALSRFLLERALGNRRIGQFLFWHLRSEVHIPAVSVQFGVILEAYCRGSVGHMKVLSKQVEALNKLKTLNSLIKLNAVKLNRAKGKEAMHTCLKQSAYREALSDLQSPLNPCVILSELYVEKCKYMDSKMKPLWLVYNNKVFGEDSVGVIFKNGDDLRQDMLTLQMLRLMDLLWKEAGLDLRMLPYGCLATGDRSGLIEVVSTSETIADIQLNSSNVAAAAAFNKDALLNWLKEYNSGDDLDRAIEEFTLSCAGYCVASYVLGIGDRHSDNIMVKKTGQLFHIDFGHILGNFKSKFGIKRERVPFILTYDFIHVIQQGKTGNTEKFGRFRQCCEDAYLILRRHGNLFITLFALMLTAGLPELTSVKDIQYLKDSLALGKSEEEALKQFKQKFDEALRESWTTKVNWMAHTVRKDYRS
T1 sequence (P27986 whole entry partner, canonical isoform): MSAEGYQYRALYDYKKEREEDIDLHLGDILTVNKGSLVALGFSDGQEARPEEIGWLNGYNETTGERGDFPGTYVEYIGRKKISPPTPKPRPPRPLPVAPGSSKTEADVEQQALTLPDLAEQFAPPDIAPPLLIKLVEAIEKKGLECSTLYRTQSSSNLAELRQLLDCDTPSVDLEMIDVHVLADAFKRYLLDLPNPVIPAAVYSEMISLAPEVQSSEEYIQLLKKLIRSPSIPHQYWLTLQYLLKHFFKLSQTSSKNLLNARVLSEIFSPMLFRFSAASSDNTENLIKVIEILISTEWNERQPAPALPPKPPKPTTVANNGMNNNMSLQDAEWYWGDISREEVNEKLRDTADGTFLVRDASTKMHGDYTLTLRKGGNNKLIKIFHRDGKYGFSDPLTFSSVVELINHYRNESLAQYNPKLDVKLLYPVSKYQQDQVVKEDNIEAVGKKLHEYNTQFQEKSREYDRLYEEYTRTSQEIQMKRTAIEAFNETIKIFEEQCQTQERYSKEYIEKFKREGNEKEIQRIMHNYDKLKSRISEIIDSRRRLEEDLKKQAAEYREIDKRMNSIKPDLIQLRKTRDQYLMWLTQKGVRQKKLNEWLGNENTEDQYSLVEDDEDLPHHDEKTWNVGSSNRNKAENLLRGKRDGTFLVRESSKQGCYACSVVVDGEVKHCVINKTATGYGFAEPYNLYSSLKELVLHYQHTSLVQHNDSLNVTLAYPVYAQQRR
Method in brief: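 PI3Kβ at 200 pM, preincubated 15 min with compound (11-point 3-fold series), then reacted 1 h at room temperature with 10 uM PIP2 and 100 uM ATP in buffer with 150 mM NaCl and 5 mM DTT. PIP3 formed measured by HTRF displacement of biotin-PIP3 from a GST-PH domain complex (665/620 nm).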

Row | Structure (SMILES) | IC50 [1] [µM] | IC50 [2] [µM]
1 | Cc1nn2c(-c3cc[nH]n3)cc(N3CCOCC3)nc2c1Cc1cccc2ccccc12 [Example 42, 4-(2-methyl-3-(naphthalen-1-ylmethyl)-7-(1H-pyrazol-3-yl)pyrazolo[1,5-a]pyrimidin-5-yl)morpholine] | < 1 | 0.00126 to 0.01
2 | Cc1nn2c(-c3ncc[nH]3)cc(N3CCOCC3)nc2c1Cc1cccc2ccccc12 [Example 43, 4-(7-(1H-imidazol-2-yl)-2-methyl-3-(naphthalen-1-ylmethyl)pyrazolo[1,5-a]pyrimidin-5-yl)morpholine] | < 1 | 0.00126 to 0.01
3 | Cc1nn2c(C#N)cc(N3CCOCC3)nc2c1Cc1cccc(C(F)(F)F)c1C [Example 45, 2-methyl-3-(2-methyl-3-(trifluoromethyl)benzyl)-5-morpholinopyrazolo[1,5-a]pyrimidine-7-carbonitrile] | > 20 | 0.126 to 1.26
4 | Cc1nn2c(-c3nn[nH]n3)cc(N3CCOCC3)nc2c1Cc1cccc(C(F)(F)F)c1C [Example 46, 4-(2-methyl-3-(2-methyl-3-(trifluoromethyl)benzyl)-7-(2H-tetrazol-5-yl)pyrazolo[1,5-a]pyrimidin-5-yl)morpholine] | 1 to 5 | 0.0126 to 0.1
5 | Cc1nn2c(-c3nn[nH]n3)cc(N3CCOCC3)nc2c1Cc1cccc2ccccc12 [Example 47, 4-(2-methyl-3-(naphthalen-1-ylmethyl)-7-(1H-tetrazol-5-yl)pyrazolo[1,5-a]pyrimidin-5-yl)morpholine] | 1 to 5 | 0.0126 to 0.1
6 | Cc1c(Cc2cnn3c(-c4cn[nH]c4)cc(N4CCOCC4)nc23)cccc1C(F)(F)F [Example 48, 4-(3-(2-methyl-3-(trifluoromethyl)benzyl)-7-(1H-pyrazol-4-yl)pyrazolo[1,5-a]pyrimidin-5-yl)morpholine] | > 20 | 0.126 to 1.26
7 | Cn1c(=O)c(Cc2cccc(Cl)c2Cl)c2nc(-c3ccncc3)cc(O)n21 [Example 50, 3-(2,3-dichlorobenzyl)-7-hydroxy-1-methyl-5-(pyridin-4-yl)pyrazolo[1,5-a]pyrimidin-2(1H)-one] | 6 to 10 | 0.0126 to 0.1
